# Tests used:
# Assay in all cases: post-emergence herbicidal activity, greenhouse
# Format in all cases: in vivo
# Crabgrass = details: Table II, 4 WAT
# Method in brief: (§1)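 Plants grown from seed or perennial propagules in greenhouse soil pans were sprayed at two to three weeks with compound solution or suspension containing about 0.4% emulsifier, at the stated application rates. Injury relative to untreated controls was scored at approximately two and four weeks after treatment on a post-emergence activity index.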
# Wheat = details: Table II, 4 WAT
# Method in brief: as §1
# Barnyardgrass = details: 4 WAT
# Method in brief: as §1
# Rice = details: Table II, 4 WAT
# Method in brief: as §1
# Smartweed = details: 4 WAT
# Method in brief: as §1
# Hemp Sesbania = details: Table II, 4 WAT
# Method in brief: as §1
# Canada Thistle = details: Table I, 4 WAT
# Method in brief: as §1
# Soybean = details: Table II, 4 WAT
# Method in brief: as §1
# Johnsongrass = details: Table I, 4 WAT
# Method in brief: as §1
# Yellow Nutsedge = details: Table I, 4 WAT
# Method in brief: as §1
# Panicum Spp = details: Table II, 4 WAT
# Method in brief: as §1
# Morningglory = details: 4 WAT
# Method in brief: as §1
# Lambsquarters = details: 4 WAT
# Method in brief: as §1
# Wild Buckwheat = details: Table II, 4 WAT
# Method in brief: as §1
# Sorghum = details: Table II, 4 WAT
# Method in brief: as §1
# Quackgrass = details: Table I, 4 WAT
# Method in brief: as §1
# Cocklebur = details: 4 WAT
# Method in brief: as §1
# Sugar Beet = details: Table II, 4 WAT
# Method in brief: as §1
# Downy Brome = details: 4 WAT
# Method in brief: as §1
# Velvetleaf = details: 4 WAT
# Method in brief: as §1
compound,measurement,setting,value
N#CCN(CP(=O)(Oc1ccccc1)Oc1ccccc1)SCl [I],post-emergence herbicidal activity index,Crabgrass; 0.28 kg/h,0 (0-24% control)
same,post-emergence herbicidal activity index,Crabgrass; 1.12 kg/h,2 (50-74% control)
same,post-emergence herbicidal activity index,Wheat; 0.28 kg/h,0 (0-24% control)
same,post-emergence herbicidal activity index,Wheat; 1.12 kg/h,1 (25-49% control)
same,post-emergence herbicidal activity index,Wheat; 5.6 kg/h,1 (25-49% control)
same,post-emergence herbicidal activity index,"Barnyardgrass; Table I, 5.6 kg/h",1 (25-49% control)
same,post-emergence herbicidal activity index,"Barnyardgrass; Table I, 11.2 kg/h",2 (50-74% control)
same,post-emergence herbicidal activity index,"Barnyardgrass; Table II, 0.28 kg/h",0 (0-24% control)
same,post-emergence herbicidal activity index,"Barnyardgrass; Table II, 1.12 kg/h",1 (25-49% control)
same,post-emergence herbicidal activity index,"Barnyardgrass; Table II, 5.6 kg/h",2 (50-74% control)
same,post-emergence herbicidal activity index,Rice; 0.28 kg/h,0 (0-24% control)
same,post-emergence herbicidal activity index,Rice; 1.12 kg/h,0 (0-24% control)
same,post-emergence herbicidal activity index,Rice; 5.6 kg/h,1 (25-49% control)
same,post-emergence herbicidal activity index,"Smartweed; Table I, 5.6 kg/h",0 (0-24% control)
same,post-emergence herbicidal activity index,"Smartweed; Table I, 11.2 kg/h",2 (50-74% control)
same,post-emergence herbicidal activity index,"Smartweed; Table II, 0.28 kg/h",1 (25-49% control)
same,post-emergence herbicidal activity index,"Smartweed; Table II, 1.12 kg/h",0 (0-24% control)
same,post-emergence herbicidal activity index,Hemp Sesbania; 0.28 kg/h,0 (0-24% control)
same,post-emergence herbicidal activity index,Hemp Sesbania; 1.12 kg/h,0 (0-24% control)
same,post-emergence herbicidal activity index,Hemp Sesbania; 5.6 kg/h,2 (50-74% control)
same,post-emergence herbicidal activity index,Canada Thistle; 5.6 kg/h,1 (25-49% control)
same,post-emergence herbicidal activity index,Canada Thistle; 11.2 kg/h,2 (50-74% control)
same,post-emergence herbicidal activity index,Soybean; 0.28 kg/h,1 (25-49% control)
same,post-emergence herbicidal activity index,Soybean; 1.12 kg/h,1 (25-49% control)
same,post-emergence herbicidal activity index,Soybean; 5.6 kg/h,2 (50-74% control)
same,post-emergence herbicidal activity index,Johnsongrass; 5.6 kg/h,1 (25-49% control)
same,post-emergence herbicidal activity index,Johnsongrass; 11.2 kg/h,1 (25-49% control)
same,post-emergence herbicidal activity index,Yellow Nutsedge; 5.6 kg/h,2 (50-74% control)
same,post-emergence herbicidal activity index,Yellow Nutsedge; 11.2 kg/h,2 (50-74% control)
same,post-emergence herbicidal activity index,Panicum Spp; 0.28 kg/h,0 (0-24% control)
same,post-emergence herbicidal activity index,Panicum Spp; 1.12 kg/h,0 (0-24% control)
same,post-emergence herbicidal activity index,Panicum Spp; 5.6 kg/h,1 (25-49% control)
same,post-emergence herbicidal activity index,"Morningglory; Table I, 5.6 kg/h",2 (50-74% control)
same,post-emergence herbicidal activity index,"Morningglory; Table I, 11.2 kg/h",2 (50-74% control)
same,post-emergence herbicidal activity index,"Morningglory; Table II, 0.28 kg/h",0 (0-24% control)
same,post-emergence herbicidal activity index,"Morningglory; Table II, 1.12 kg/h",1 (25-49% control)
same,post-emergence herbicidal activity index,"Morningglory; Table II, 5.6 kg/h",2 (50-74% control)
same,post-emergence herbicidal activity index,"Lambsquarters; Table I, 5.6 kg/h",4 (100% control)
same,post-emergence herbicidal activity index,"Lambsquarters; Table I, 11.2 kg/h",3 (75-99% control)
same,post-emergence herbicidal activity index,"Lambsquarters; Table II, 0.28 kg/h",2 (50-74% control)
same,post-emergence herbicidal activity index,"Lambsquarters; Table II, 1.12 kg/h",4 (100% control)
same,post-emergence herbicidal activity index,"Lambsquarters; Table II, 5.6 kg/h",4 (100% control)
same,post-emergence herbicidal activity index,Wild Buckwheat; 0.28 kg/h,0 (0-24% control)
same,post-emergence herbicidal activity index,Wild Buckwheat; 1.12 kg/h,0 (0-24% control)
same,post-emergence herbicidal activity index,Wild Buckwheat; 5.6 kg/h,2 (50-74% control)
same,post-emergence herbicidal activity index,Sorghum; 0.28 kg/h,1 (25-49% control)
same,post-emergence herbicidal activity index,Sorghum; 1.12 kg/h,2 (50-74% control)
same,post-emergence herbicidal activity index,Sorghum; 5.6 kg/h,3 (75-99% control)
same,post-emergence herbicidal activity index,Quackgrass; 5.6 kg/h,0 (0-24% control)
same,post-emergence herbicidal activity index,Quackgrass; 11.2 kg/h,1 (25-49% control)
same,post-emergence herbicidal activity index,"Cocklebur; Table I, 5.6 kg/h",3 (75-99% control)
same,post-emergence herbicidal activity index,"Cocklebur; Table I, 11.2 kg/h",2 (50-74% control)
same,post-emergence herbicidal activity index,"Cocklebur; Table II, 0.28 kg/h",2 (50-74% control)
same,post-emergence herbicidal activity index,"Cocklebur; Table II, 1.12 kg/h",2 (50-74% control)
same,post-emergence herbicidal activity index,"Cocklebur; Table II, 5.6 kg/h",2 (50-74% control)
same,post-emergence herbicidal activity index,Sugar Beet; 0.28 kg/h,0 (0-24% control)
same,post-emergence herbicidal activity index,Sugar Beet; 1.12 kg/h,0 (0-24% control)
same,post-emergence herbicidal activity index,Sugar Beet; 5.6 kg/h,0 (0-24% control)
same,post-emergence herbicidal activity index,"Downy Brome; Table I, 5.6 kg/h",0 (0-24% control)
same,post-emergence herbicidal activity index,"Downy Brome; Table I, 11.2 kg/h",2 (50-74% control)
same,post-emergence herbicidal activity index,"Downy Brome; Table II, 0.28 kg/h",1 (25-49% control)
same,post-emergence herbicidal activity index,"Downy Brome; Table II, 1.12 kg/h",0 (0-24% control)
same,post-emergence herbicidal activity index,"Downy Brome; Table II, 5.6 kg/h",1 (25-49% control)
same,post-emergence herbicidal activity index,"Velvetleaf; Table I, 5.6 kg/h",2 (50-74% control)
same,post-emergence herbicidal activity index,"Velvetleaf; Table I, 11.2 kg/h",2 (50-74% control)
same,post-emergence herbicidal activity index,"Velvetleaf; Table II, 0.28 kg/h",1 (25-49% control)
same,post-emergence herbicidal activity index,"Velvetleaf; Table II, 1.12 kg/h",1 (25-49% control)
same,post-emergence herbicidal activity index,"Velvetleaf; Table II, 5.6 kg/h",2 (50-74% control)

# — US4508663A, “Process for preparing thiosulfenamide derivatives of N-phosphonomethylglycinonitriles” (Monsanto Company, priority 1983, dated 1985)
